Here are results for two compounds from patent publication US20110045520A1, “FATTY ACID MARKERS FOR THE DIAGNOSIS, PROGNOSIS AND MANAGEMENT OF CARDIOVASCULAR DISEASE” (priority 2007, published 2011).

For the assay, the target named is T1, human serum albumin (HSA) in pooled normal serum (Homo sapiens, UniProt P02768).
T1 construct: from tissue; host or cells: pooled normal human serum
The assay is described as follows: Cobalt binding assay, HSA in pooled normal serum incubated with individual unesterified fatty acids. To be noted: fatty acid:HSA molar ratios of about 8; most apparent with HSA in pooled normal serum. The procedure: The concentrations of twelve unesterified fatty acids were measured in vitro to determine if differences in individual fatty acid levels affect Co(II)—albumin interactions in the cobalt binding assay. The effect of individual fatty acid concentrations on HSA was evaluated in the presence of HSA from two different sources: (1) purified commercial HSA with defined buffer conditions, and (2) USA in pooled normal serum. The cobalt binding assays were performed after incubation of HSA with each unesterified fatty acid for 12 hours at room temperature. The concentrations of the individual FFAs were determined by measuring total FFAs levels before and after the addition of the specific FFAs to pooled normal serum. HSA concentrations were measured by standard colorimetric protein assays. Molar ratios were calculated from the concentration values determined for the individual specific FFAs with respect to the concentrations of HSA measured in each sample.

T1 sequence (P02768 25-609): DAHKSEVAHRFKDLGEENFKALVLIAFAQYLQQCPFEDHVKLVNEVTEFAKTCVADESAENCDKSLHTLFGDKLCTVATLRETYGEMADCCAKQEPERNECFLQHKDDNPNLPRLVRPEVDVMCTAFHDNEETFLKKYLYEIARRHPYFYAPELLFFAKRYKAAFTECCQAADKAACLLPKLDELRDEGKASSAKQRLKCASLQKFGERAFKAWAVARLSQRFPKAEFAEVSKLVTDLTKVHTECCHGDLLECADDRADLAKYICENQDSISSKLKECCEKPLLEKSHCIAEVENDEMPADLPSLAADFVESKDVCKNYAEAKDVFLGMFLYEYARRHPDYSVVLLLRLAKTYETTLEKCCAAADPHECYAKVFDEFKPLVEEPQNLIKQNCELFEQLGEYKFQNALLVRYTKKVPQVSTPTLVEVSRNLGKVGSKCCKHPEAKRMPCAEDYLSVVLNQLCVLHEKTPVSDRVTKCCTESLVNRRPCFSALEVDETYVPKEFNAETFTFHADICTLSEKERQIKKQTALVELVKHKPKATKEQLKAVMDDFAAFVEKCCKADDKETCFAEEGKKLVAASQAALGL

For `CCCCCCCC/C=C\CCCCCCCC(=O)O` [Oleic acid], the “effect on the percent reduction of the Co[II]-HSA binding assay” value is reported as “significant effect”.
The value for `CCCCC/C=C\C/C=C\C/C=C\C/C=C\CCCC(=O)O` [Arachidonic acid] was “significant effect”.
